Legend:
[1] = system: CD8+ T cells from HLA-A2+ normal donors or HLA-A2+ melanoma patients; experiment: In vitro sensitization of human CD8+ T cells with TASA peptide-pulsed autologous DC, IFN-γ ELISA against peptide-pulsed T2 cells; type: cell-based
How it was run: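 Autologous DC pulsed with 1 μM each TASA peptide pool for 4 h, then used at 10:1 T cell:DC to stimulate CD8+ T cells: twice weekly for normal donors (analysed day 12), once for melanoma patients (day 5). Responders cultured 24 h at 5:1 with T2 cells pulsed with 1 μM peptide or control; IFN-γ measured by ELISA.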

[2] = system: MC38 tumor microenvironment; experiment: Fluorescence imaging of MC38 tumor sections after prophylactic vaccination; type: in vivo, HHD mice; details: day 14 tumors; p<0.05 vs. untreated or DC.IL12/no peptide
Text: Day 14 MC38 tumors were harvested from HHD mice that had been vaccinated as outlined in FIG. 9B with the indicated peptides (or control PBS or DC.IL12 alone=No peptide). In FIG. 10A, six-micron tissue sections were co-stained with anti-CD8 (green) and anti-NG2 (red) antibodies and imaged by fluorescence microscopy. Blue signal=nuclear counterstain using 4′,6-diamidino-2-phenylindole (DAPI). FIG. 10B provides a summary of the mean+/−SD number of CD8^+ cells per high-power field (HPF) in MC38 tumors isolated from control or vaccinated mice as depicted in FIG. 10A. In FIG. 10C, tissue sections were co-stained with anti-CD31 (green) and anti-NG2 (red) antibodies and imaged by fluorescence microscopy. Blue signal=nuclear counterstain using DAPI. In FIG. 10D, the mean+/−SD number of CD31^+ vessels per HPF of MC38 tumors in control or vaccinated mice are summarized Representative data is depicted from 1 of 3 independent experiments performed. *p<0.05 versus DC only or untreated control mice.
Fluorescence Imaging of Tumor Sections. Tumor tissue samples were prepared and 6 micron sections prepared as previously reported (Komita et al., Cancer Res., 68:8076-8084, 2008). The following Abs were used: (for T cell analyses), rabbit anti-mouse NG2 (Millipore, Bedford, Mass.) and alexa488-conjugated anti-CD4 or -CD8β antibodies or matching isotype controls (all from BD-Biosciences); (for vascular analyses), rat anti-mouse CD31 (BD-Biosciences) and rabbit anti-mouse NG2 (Millipore) Abs; (for TBVA), rat anti-mouse CD31 (BD-Biosciences) and guinea pig anti-mouse NG2 Abs, along with anti-TBVA as described in Example 1. Imaging was performed using an Olympus Fluoview 500 Confocal microscope (Olympus America, Center Valley, Pa.).
Protective vaccines incorporating TBVA peptides promote enhanced infiltration of the TME by CD8^+ T cells in association with an inhibition of tumor vascularity. MC38 tumor lesions from all cohorts of animals with evidence of disease on day 14 (post-tumor inoculation) were isolated and immunofluorescence microscopy on tumor sections was performed. […] In marked contrast, CD4^+ T cell infiltration in the TME was sparse and the data were indistinguishable when comparing control vs. vaccinated mice (FIG. 17). […] Correlative analyses indicated an association between the anti-tumor efficacy of vaccines and their ability to promote CD8^+ T cell infiltration and reduced vascularity in the TME (FIG. 16).

EphA2: EphA2-derived peptide 883-891 pulsed onto DC or DC.IL12 (TLADFDPRV; listed as Homo sapiens)
Specific CD8+ T cell Production of IFN-γ in Response to TASA ([1]; donor Mel1, melanoma patient): + (Human responses were designated as + if T cell reactivity against T2 cells presenting the indicated peptide (IFN-γ ELISA) was >30 pg/ml and more than 2 fold higher than reactivity versus T2 cells pulsed with the negative control HIV-nef190-198 peptide)
Specific CD8+ T cell Production of IFN-γ in Response to TASA ([1]; donor Mel2, melanoma patient): + (Human responses were designated as + if T cell reactivity against T2 cells presenting the indicated peptide (IFN-γ ELISA) was >30 pg/ml and more than 2 fold higher than reactivity versus T2 cells pulsed with the negative control HIV-nef190-198 peptide)
Specific CD8+ T cell Production of IFN-γ in Response to TASA ([1]; donor Mel3, melanoma patient): + (Human responses were designated as + if T cell reactivity against T2 cells presenting the indicated peptide (IFN-γ ELISA) was >30 pg/ml and more than 2 fold higher than reactivity versus T2 cells pulsed with the negative control HIV-nef190-198 peptide)
Specific CD8+ T cell Production of IFN-γ in Response to TASA ([1]; donor Mel4, melanoma patient): + (Human responses were designated as + if T cell reactivity against T2 cells presenting the indicated peptide (IFN-γ ELISA) was >30 pg/ml and more than 2 fold higher than reactivity versus T2 cells pulsed with the negative control HIV-nef190-198 peptide)
Specific CD8+ T cell Production of IFN-γ in Response to TASA ([1]; donor Mel6, melanoma patient): + (Human responses were designated as + if T cell reactivity against T2 cells presenting the indicated peptide (IFN-γ ELISA) was >30 pg/ml and more than 2 fold higher than reactivity versus T2 cells pulsed with the negative control HIV-nef190-198 peptide)
Specific CD8+ T cell Production of IFN-γ in Response to TASA ([1]; donor Mel9, melanoma patient): + (Human responses were designated as + if T cell reactivity against T2 cells presenting the indicated peptide (IFN-γ ELISA) was >30 pg/ml and more than 2 fold higher than reactivity versus T2 cells pulsed with the negative control HIV-nef190-198 peptide)
Specific CD8+ T cell Production of IFN-γ in Response to TASA ([1]; donor ND3, normal donor): + (Human responses were designated as + if T cell reactivity against T2 cells presenting the indicated peptide (IFN-γ ELISA) was >30 pg/ml and more than 2 fold higher than reactivity versus T2 cells pulsed with the negative control HIV-nef190-198 peptide)
Specific CD8+ T cell Production of IFN-γ in Response to TASA ([1]; donor ND5, normal donor): + (Human responses were designated as + if T cell reactivity against T2 cells presenting the indicated peptide (IFN-γ ELISA) was >30 pg/ml and more than 2 fold higher than reactivity versus T2 cells pulsed with the negative control HIV-nef190-198 peptide)
Suppression in CD31+ vessel counts in the MC38 TME [2]: greatest degree of suppression in CD31^+ vessel counts
